Target: T1, Ba/F3 cell EGFR Exon20 ins NPH (Homo sapiens, UniProt P00533, INS773NPH)
T1 construct: expressed in transfected cells; host or cells: Ba/F3
Experiment: Ba/F3 cell proliferation suppression, EGFR Exon20 ins NPH
Format: cell-based
Settings: GI50 class; Ba/F3 cell line with NPH inserted at Exon20 of EGFR; 72 hours
How it was run: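 After 72 h compound exposure (twelve 3-fold steps, 0.3 nM–50 um final), live cells were measured by CellTiter-Glo luminescence and growth expressed as % of control to derive GI50. Cells were seeded at 3000–5000 per well a day earlier; Ba/F3 medium contained IL-3; three repeats.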

Compound | Ba/F3 (NPH) Activity
C=CC(=O)Nc1cc(Nc2cc(N3OCC[C@@H]3c3cccc(F)c3)ncn2)c(OC)cc1N1CCC(N2C[C@@H]3C[C@H]2CN3CC)CC1 [compound 835, N-(2-(4-((1S,4S)-5-ethyl-2,5-diazabicyclo[2.2.1]heptane-2-yl)piperidine-1-yl)-5-((6-((R)-3-(3-fluorophenyl)isoxazolidine-2-yl)pyrimidine-4-yl)amino)-4-methoxyphenyl) acrylamide] | A (GI50 < 50 nM)
C=CC(=O)Nc1cc(Nc2cc(N3OCC[C@@H]3Cc3ccccc3)ncn2)c(OC)cc1N1CC[C@@H](N(C)C)C1 [compound 964, N-(5-((6-((S)-3-benzylisoxazolidine-2-yl)pyrimidine-4-yl)amino)-2-((R)-3-(dimethylamino)pyrolidine-1-yl)-4-methoxyphenyl) acrylamide] | A (GI50 < 50 nM)
C=CC(=O)Nc1cc(Nc2cc(N3OCC[C@@H]3c3ccc(F)c(Cl)c3)ncn2)c(OC)cc1N1CCC(N2C[C@@H](C)N(C3CC3)C[C@H]2C)CC1 [Example 178, N-(5-((6-((R)-3-(3-chloro-4-fluorophenyl)isoxazolidine-2-yl)pyrimidine-4-yl)amino)-2-(4-((2R,5R)-4-cyclopropyl-2,5-dimethylpiperazine-1-yl)piperidine-1-yl)-4-methoxyphenyl) acrylamide] | A (GI50 < 50 nM)
C=CC(=O)Nc1cc(Nc2cc(N3OCC[C@@H]3c3ccc(Cl)cc3F)ncn2)c(OC)cc1N1CC[C@H](N2CCOCC2)C1 [compound 407, N-(5-((6-((R)-3-(4-chloro-2-fluorophenyl)isoxazolidine-2-yl)pyrimidine-4-yl)amino)-4-methoxy-2-((S)-3-morpholinopyrolidine-1-yl)phenyl)acrylamide] | B (50 nM ≤ GI50 < 500 nM)
C=CC(=O)Nc1cc(Nc2cc(N3OCC[C@@H]3c3cc(F)cc(Cl)c3)ncn2)c(OC)cc1N1CCC(N2C[C@@H](C)O[C@@H](C)C2)CC1 [compound 594, N-(5-((6-((R)-3-(3-chloro-5-fluorophenyl)isoxazolidine-2-yl)pyrimidine-4-yl)amino)-2-(4-((2S,6R)-2,6-dimethylmorpholino)piperidine-1-yl)-4-methoxyphenyl) acrylamide] | A (GI50 < 50 nM)
C=CC(=O)Nc1cc(Nc2cc(N3OCC[C@@H]3c3cc(F)cc(F)c3)ncn2)c(F)cc1N1CCC(N2CCN(C3CC3)CC2)CC1 [compound 533, N-(2-(4-(4-cyclopropylpiperazine-1-yl)piperidine-1-yl)-5-((6-((R)-3-(3,5-difluorophenyl)isoxazolidine-2-yl)pyrimidine-4-yl)amino)-4-fluorophenyl) acrylamide] | A (GI50 < 50 nM)
C=CC(=O)Nc1cc(Nc2cc(N3OCC[C@@H]3Cc3ccccc3)ncn2)c(OC)cc1N1CCC(OCCN(CC)CC)CC1 [compound 978, N-(5-((6-((S)-3-benzylisoxazolidine-2-yl)pyrimidine-4-yl)amino)-2-(4-(2-(diethylamino)ethoxy)piperidine-1-yl)-4-methoxyphenyl) acrylamide] | C (500 nM ≤ GI50 < 5000 nM)
C=CC(=O)Nc1cc(Nc2cc(N3OCC[C@@H]3c3cccc(F)c3)ncn2)c(OC)cc1N1C[C@H]2C[C@@H]1CO2 [compound 833, N-(2-((1R,4R)-2-oxa-5-azabicyclo[2.2.1]heptane-5-yl)-5-((6-((R)-3-(3-fluorophenyl)isoxazolidine-2-yl)pyrimidine-4-yl)amino)-4-methoxyphenyl) acrylamide] | A (GI50 < 50 nM)
C=CC(=O)Nc1cc(Nc2cc(N3OCC[C@@H]3Cc3cccc(F)c3C)ncn2)c(OC)cc1N1CCC(N2CCN(C3CC3)[C@H](C)C2)CC1 [compound 1004, N-(2-(4-((R)-4-cyclopropyl-3-methylpiperazine-1-yl)piperidine-1-yl)-5-((6-((S)-3-(3-fluoro-2-methylbenzyl)isoxazolidine-2-yl)pyrimidine-4-yl)amino)-4-methoxyphenyl) acrylamide] | A (GI50 < 50 nM)
C=CC(=O)Nc1cc(Nc2cc(N3OCC[C@@H]3c3ccc4ccccc4c3)ncn2)c(OC)cc1N1CCC(N2CCN(C)CC2)CC1 [compound 554, N-(4-methoxy-2-(4-(4-methylpiperazine-1-yl)piperidine-1-yl)-5-((6-((R)-3-(naphthalene-2-yl)isoxazolidine-2-yl)pyrimidine-4-yl)amino)phenyl)acrylamide] | B (50 nM ≤ GI50 < 500 nM)
C=CC(=O)Nc1cc(Nc2cc(N3OCC[C@@H]3c3cccc(Cl)c3C)ncn2)c(OC)cc1N1CCC(N2CC3CCC(C2)N3C2CC2)CC1 [Example 154, N-(5-((6-((R)-3-(3-chloro-2-methylphenyl)isoxazolidine-2-yl)pyrimidine-4-yl)amino)-2-(4-(8-cyclopropyl-3,8-diazabicyclo [3.2.1]octan-3-yl)piperidine-1-yl)-4-methoxyphenyl) acrylamide] | A (GI50 < 50 nM)
C=CC(=O)Nc1cc(Nc2cc(N3OCC[C@@H]3c3cccc(Cl)c3C)ncn2)c(OC)cc1N1CCC(N2CCOCC2)CC1 [compound 486, N-(5-((6-((R)-3-(3-chloro-2-methylphenyl)isoxazolidine-2-yl)pyrimidine-4-yl)amino)-4-methoxy-2-(4-morpholinopiperidine-1-yl)phenyl)acrylamide] | A (GI50 < 50 nM)
C=CC(=O)Nc1cc(Nc2cc(N3OCC[C@@H]3c3cccc(C#N)c3)ncn2)c(OC)cc1N1CCC(O)CC1 [compound 390, N-(5-((6-((R)-3-(3-cyanophenyl)isoxazolidine-2-yl)pyrimidine-4-yl)amino)-2-(4-hydroxypiperidine-1-yl)-4-methoxyphenyl) acrylamide] | B (50 nM ≤ GI50 < 500 nM)
C=CC(=O)Nc1cc(Nc2cc(N3OCC[C@@H]3c3ccc(C)nc3)ncn2)c(OC)cc1N1CCN(C(C)=O)CC1 [Example 49, N-(2-(4-acetylpiperazine-1-yl)-4-methoxy-5-((6-((R)-3-(6-methylpyridine-3-yl)isoxazolidine-2-yl)pyrimidine-4-yl)amino)phenyl) acrylamide] | C (500 nM ≤ GI50 < 5000 nM)
C=CC(=O)Nc1cc(Nc2cc(N3OCC[C@@H]3c3cccc(OC)c3)ncn2)c(OC)cc1N1CCC(N2CC[C@H](N(C)C)C2)CC1 [compound 729, N-(2-(4-((S)-3-(dimethylamino)pyrolidine-1-yl)piperidine-1-yl)-4-methoxy-5-((6-((R)-3-(3-methoxyphenyl)isoxazolidine-2-yl)pyrimidine-4-yl)amino)phenyl)acrylamide] | A (GI50 < 50 nM)
C=CC(=O)Nc1cc(Nc2cc(N3OCC[C@@H]3c3cccc(C)c3F)ncn2)c(OC)cc1N1CCC(N2CCN(CC)CC2)CC1 [compound 318, N-(2-(4-(4-ethylpiperazine-1-yl)piperidine-1-yl)-5-((6-((R)-3-(2-fluoro-3-methylphenyl)isoxazolidine-2-yl)pyrimidine-4-yl)amino)-4-methoxyphenyl) acrylamide] | A (GI50 < 50 nM)
C=CC(=O)Nc1cc(Nc2cc(N3OCC[C@@H]3c3cc(F)cc(F)c3)ncn2)c(OC)cc1N1CC(N2CCN(C3CC3)CC2)C1 [compound 588, N-(2-(3-(4-cyclopropylpiperazine-1-yl)azetidine-1-yl)-5-((6-((R)-3-(3,5-difluorophenyl)isoxazolidine-2-yl)pyrimidine-4-yl)amino)-4-methoxyphenyl) acrylamide] | B (50 nM ≤ GI50 < 500 nM)
C=CC(=O)Nc1cc(Nc2cc(N3OCC[C@@H]3c3cc(F)ccc3F)ncn2)c(OC)cc1N1CCC(N2CCC3(CC2)CC3)CC1 [compound 828, N-(2-(4-(6-azaspiro[2.5]octan-6-yl)piperidine-1-yl)-5-((6-((R)-3-(2,5-difluorophenyl)isoxazolidine-2-yl)pyrimidine-4-yl)amino)-4-methoxyphenyl) acrylamide] | A (GI50 < 50 nM)
C=CC(=O)Nc1cc(Nc2cc(N3OCC[C@@H]3c3cccc(Cl)c3Cl)ncn2)c(OC)cc1N(C)CCN(C)C [compound 516, N-(5-((6-((R)-3-(2,3-dichlorophenyl)isoxazolidine-2-yl)pyrimidine-4-yl)amino)-2-((2-(dimethylamino)ethyl)(methyl)amino)-4-methoxyphenyl) acrylamide] | A (GI50 < 50 nM)
C=CC(=O)Nc1cc(Nc2cc(N3OCC[C@@H]3c3ccc(F)c(F)c3)ncn2)c(OC)cc1N1CCC(N2C[C@@H]3C[C@H]2CO3)CC1 [compound 497, N-(2-(4-((1S,4S)-2-oxa-5-azabicyclo[2.2.1]heptane-5-yl)piperidine-1-yl)-5-((6-((R)-3-(3,4-difluorophenyl)isoxazolidine-2-yl)pyrimidine-4-yl)amino)-4-methoxyphenyl) acrylamide] | B (50 nM ≤ GI50 < 500 nM)
C=CC(=O)Nc1cc(Nc2cc(N3OCC[C@@H]3c3ccc(F)c(F)c3)ncn2)c(OC)cc1N1C2CC1CN(C)C2 [compound 542, N-(5-((6-((R)-3-(3,4-difluorophenyl)isoxazolidine-2-yl)pyrimidine-4-yl)amino)-4-methoxy-2-(3-methyl-3,6-diazabicyclo [3.1.1]heptane-6-yl)phenyl)acrylamide] | B (50 nM ≤ GI50 < 500 nM)
C=CC(=O)Nc1cc(Nc2cc(N3OCC[C@@H]3c3cccc4ccccc34)ncn2)c(OC)cc1N(C)CCN(C)C [compound 440, N-(2-((2-(dimethylamino)ethyl) (methyl)amino)-4-methoxy-5-((6-((R)-3-(naphthalene-1-yl)isoxazolidine-2-yl)pyrimidine-4-yl)amino)phenyl)acrylamide] | A (GI50 < 50 nM)
C=CC(=O)Nc1cc(Nc2cc(N3OCC[C@@H]3Cc3cccc(Cl)c3Cl)ncn2)c(OC)cc1N1CCC(N2CCO[C@H](C)C2)CC1 [compound 1011, N-(5-((6-((S)-3-(2,3-dichlorobenzyl)isoxazolidine-2-yl)pyrimidine-4-yl)amino)-4-methoxy-2-(4-((R)-2-methylmorpholino)piperidine-1-yl)phenyl) acrylamide] | A (GI50 < 50 nM)
